“And” between values parts separate entries of the source, which are not always exact repeats. Equal values may be shown once.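 Compound exposure: 48 hours, 5 concentrations, 96-well plates. Abbreviation: GI50, concentration required for 50% inhibition of growth. TGI is the concentration that stops growth completely.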
Legend:
Test in all cases: NCI tumour cell line growth inhibition, 48 h
DLD-1 colon = test system: DLD-1 colon
DMS 273 small cell lung = test system: DMS 273 small cell lung
KM20L2 colon = test system: KM20L2 colon
P388/ADR leukemia = test system: P388/ADR leukemia
SN12K1 renal = test system: SN12K1 renal
SNB-78 CNS = test system: SNB-78 CNS
RXF-631 renal = test system: RXF-631 renal
XF 498 CNS = test system: XF 498 CNS
P388 leukemia = test system: P388 leukemia

Row | SMILES | TGI (DLD-1 colon) | TGI (DMS 273 small cell lung) | TGI (KM20L2 colon) | TGI (P388/ADR leukemia) | TGI (SN12K1 renal) | TGI (SNB-78 CNS) | TGI (RXF-631 renal) | TGI (XF 498 CNS) | TGI (P388 leukemia) | GI50 (DLD-1 colon) | GI50 (DMS 273 small cell lung) | GI50 (KM20L2 colon) | GI50 (SNB-78 CNS)
1 | Cc1c2cc[n+](CCN3CCCCC3)cc2c(C)c2c1[nH]c1ccc(O)cc12 | 49.6 µM | 17.1 µM | 34.5 µM | 31.8 µM | 20.3 µM | 64.1 µM |  |  |  |  |  |  | 
2 | Cc1ccc(Oc2ccc(C)cc2[N+](=O)[O-])cc1 | > 100 µM | > 100 µM | > 100 µM |  |  | 95 µM | > 100 µM | 64.5 µM |  |  |  |  | 
3 | O=S(=O)(Sc1ccc(Cl)cc1)c1ccc(Cl)cc1 | 31.6 µM | 29.6 µM | 34.1 µM |  |  | 45.9 µM |  | 53.4 µM |  |  |  |  | 
4 | NC(=O)CCCC(NCc1c2ccccc2nc2ccccc12)C(=O)O (centres undefined) | > 100 µM | 86.7 µM | > 100 µM |  |  |  |  | 61.8 µM |  |  |  |  | 
5 | NC(=O)NN=C(CS)CS | > 65.5 µM | 45.1 µM | 36.4 µM | > 100 µM | 41.6 µM | > 100 µM |  |  | 47.4 µM |  |  |  | 
6 | CN(C)CCCNc1ccc2ncn3c4ccccc4c(=O)c1c23 | 39.6 µM |  | 30.4 µM |  |  | 78.7 µM | 26.3 µM |  |  |  |  |  | 
7 | CC(=O)C(O)N1C(=O)C=CC1=O (centres undefined) | 23.6 µM and 3.97 µM | 32.2 µM and 28.1 µM | 32.8 µM and 3.51 µM |  |  | 37 µM and 54.9 µM | 33.9 µM | 31.5 µM |  | 9.71 µM | 18 µM | 17.9 µM and 1.9 µM | 19.9 µM
8 | CCCCCCCSc1nc2c(C(=O)OCC)ncn2c2ccccc12 |  | > 100 µM | > 100 µM |  |  |  |  | > 100 µM |  |  |  |  | 
9 | CC1C(O)C2(Oc3cc4c(c5c3[C@@H](CC5O)[C@H]2C)CCC2Cc3nc5c(nc3C[C@@]42C)CC2CCC3C4=C[C@H]6O[C@@]7(O[C@@](C)(CO)C[C@@H]7O)C(C)[C@@]6(O)[C@]4(C)[C@@H](O)CC3[C@]2(C)C5)OC1(C)C (some centres undefined) | > 3.67 µM | 0.114 µM | 0.491 µM | 1.84 µM | 0.194 µM | 0.584 µM |  | 0.343 µM | 0.435 µM |  |  |  | 
10 | N#CC(c1ccccc1)c1nc2ccc(=N)cc-2n(O)c1C(C#N)c1ccccc1 (centres undefined) | > 100 µM | > 100 µM | > 100 µM |  |  | > 100 µM | > 100 µM | > 100 µM |  |  |  |  | 

From PubChem BioAssay (NCI)
